Converted amounts (≈) assume the structure as drawn. Read-outs that look alike come from different tables or passages of the source.
Key:
M. smegmatis ATCC 19420 = test: Antibacterial testing, broth microdilution (CLSI); type: cell-based, Mycobacterium smegmatis; settings: Mycolicibacterium smegmatis
Protocol: (§1) Antibacterial testing was performed for Acinetobacter baumannii NCTC 13420, E. coli ATCC 25922, M. smegmatis ATCC 19420, Pseudomonas aeruginosa ATCC 27853 and Staphylococcus aureus ATCC 29213, using the broth microdilution method under CLSI guidelines[19] (Table 1). The agar dilution method was additionally performed for M. smegmatis under EUCAST guidelines.[20]

[1] = system: M. smegmatis 4x03863 Mutant 1; test: microbe, parasite or virus in culture; type: cell-based; settings: Mycolicibacterium smegmatis, read-out: MIC100
[2] = system: M. smegmatis 4x03863 Mutant 3; test: microbe, parasite or virus in culture; type: cell-based; settings: Mycolicibacterium smegmatis, read-out: MIC100
[3] = system: M. smegmatis 4x03863 Mutant 4; test: microbe, parasite or virus in culture; type: cell-based; settings: Mycolicibacterium smegmatis, read-out: MIC100
E. coli ATCC 25922 = test: Antibacterial testing, broth microdilution (CLSI); type: cell-based; settings: Escherichia coli
Protocol: as §1

E. coli 2x03863 Mutant = test: microbe, parasite or virus in culture; type: cell-based; settings: Escherichia coli, read-out: MIC100
M. tuberculosis gyrase [4] = target: T1, M. tuberculosis gyrase (Mycobacterium tuberculosis, UniProt P9WG45); test: ATP-independent relaxation of supercoiled DNA; type: biochemical; settings: absence of ATP
T1 construct: Both the GyrB and GyrBA constructs were altered by deleting the N-terminal 40 amino acids; made in house
Description: In the presence of FQs, gyrase can cleave DNA due to the cleavage complex being stabilized.[35]

M. tuberculosis gyrase [5] = target: T1, M. tuberculosis gyrase; test: DNA cleavage assay (cleavage complex stabilisation); type: biochemical; settings: 20 nM gyrase, 1% DMSO
Protocol: Figure S1. […] DNA cleavage assays were carried out as previously described;^11 these are essentially the same as supercoiling assays, except that the reactions are terminated by the addition of SDS and proteinase K, and incubated for a further 30 mins at 37°C. Samples contained 20 nM gyrase and 1% DMSO, except where indicated, and Moxifloxacin, Redx03863 or Redx04739, as indicated. Agarose gels (1%) were run in the presence of 0.5 µg/mL ethidium bromide. – indicates no gyrase; + and all other lanes contain gyrase. nc = nicked circular DNA; l = linear; cc = closed circular.

[6] = target: T2, M. tuberculosis GyrBA fusion protein (Mycobacterium tuberculosis, UniProt P9WG45+P9WG47); test: biochemical
T2 construct: Both the GyrB and GyrBA constructs were altered by deleting the N-terminal 40 amino acids; made in house; host or cells: E. coli Rosetta 2 (pLysS)

P. aeruginosa ATCC 27853 = test: Antibacterial testing, broth microdilution (CLSI); type: cell-based; settings: Pseudomonas aeruginosa, ATCC27853
Protocol: as §1

S. aureus ATCC 29213 = test: Antibacterial testing, broth microdilution (CLSI); type: cell-based; settings: Staphylococcus aureus, ATCC29213
Protocol: as §1

A. baumannii NCTC 13420 = test: Antibacterial testing, broth microdilution (CLSI); type: cell-based; settings: Acinetobacter baumannii, NCTC13420
Protocol: as §1

M. tuberculosis gyrase [7] = target: T1, M. tuberculosis gyrase; test: biochemical; settings: 74 nM of each gyrase subunit, 1% DMSO; read-out: IC50 (apparent), gyrase supercoiling
[8] = system: M. smegmatis 4x03863 Mutant 2 (GyrB Gly83Ser)
[9] = M. smegmatis ATCC19420 (WT), read-out: MIC100
[10] = E. coli ATCC25922 (WT), read-out: MIC100
[11] = ATCC19420, M. smegmatis ATCC 19420, broth microdilution, read-out: MIC
[12] = GyrBA fusion protein at 200 nM, linear pBR322 DNA 20 μg/mL, read-out: apparent IC50, gyrase ATPase activity
[13] = gyrase 200 nM, IC50 lower than this not determinable, read-out: IC50, gyrase ATPase reaction
[14] = ATCC25922, E. coli ATCC 25922, broth microdilution, read-out: MIC

Row | SMILES | MIC (M. smegmatis ATCC 19420; [9]) [µg/mL] | MIC [1] [µg/mL] | MIC [2] [µg/mL] | MIC [3] [µg/mL] | MIC (E. coli ATCC 25922; [10]) [µg/mL] | MIC (E. coli 2x03863 Mutant) [µg/mL] | inhibition of relaxation of supercoiled DNA (M. tuberculosis gyrase [4]) | MIC (M. smegmatis ATCC 19420; [11]) [µg/mL] | stabilization of the cleavage complex (M. tuberculosis gyrase [5]) | IC50 [6, 12] [nM] | IC50 [6, 13] [nM] | MIC (P. aeruginosa ATCC 27853) [µg/mL] | MIC (S. aureus ATCC 29213) [µg/mL] | MIC (E. coli ATCC 25922; [14]) [µg/mL] | MIC (A. baumannii NCTC 13420) [µg/mL] | IC50 (M. tuberculosis gyrase [7]) [nM] | increase in resistance of mutant strain [8] [fold]
1 | NNC(=O)c1ccncc1 [Isoniazid] | 32 (≈ 233 µM) | 32 (≈ 233 µM) | 16 (≈ 117 µM) | 32 (≈ 233 µM) |  |  |  |  |  |  |  |  |  |  |  |  | 
2 | COc1c(N2C[C@@H]3CCCN[C@@H]3C2)c(F)cc2c(=O)c(C(=O)O)cn(C3CC3)c12 [Moxifloxacin, reference compound] | 0.125 (≈ 0.311 µM) | < 0.125 | < 0.125 | < 0.125 | 0.016 (≈ 0.0399 µM) | 0.016 (≈ 0.0399 µM) |  |  |  |  |  |  |  |  |  |  | 
3 | CNc1cc(F)cc2c1[nH]c1nc(Oc3cnc(C)nc3)nc(N3C[C@@H]4[C@@H](N)[C@@H]4C3)c12 [Redx03863] | 0.016 (≈ 0.0381 µM) | 0.25 (≈ 0.595 µM) | 0.125 (≈ 0.297 µM) | 0.25 (≈ 0.595 µM) | 0.016 (≈ 0.0381 µM) | 32 (≈ 76.1 µM) | did not inhibit | 0.016 (≈ 0.0381 µM) | did not stabilize the cleavage complex | 170 | ~200 | 4 (≈ 9.51 µM) | 0.125 (≈ 0.297 µM) | 0.016 (≈ 0.0381 µM) | 0.031 (≈ 0.0737 µM) | 9 | 16
4 | CNc1cc(F)cc2c1[nH]c1nc(CNC(=O)c3cnco3)nc(N3CCC(N)C3)c12 (centres unmarked) [Redx04739] | 0.5 (≈ 1.18 µM) | 4 (≈ 9.42 µM) | 4 (≈ 9.42 µM) | 2 (≈ 4.71 µM) | 8 (≈ 18.8 µM) | > 64 | did not inhibit | 0.25 (≈ 0.589 µM) | did not stabilize the cleavage complex | 210 | ~200 | 32 (≈ 75.4 µM) | 8 (≈ 18.8 µM) | 8 (≈ 18.8 µM) | 64 (≈ 151 µM) | 30 | 8
5 | CO[C@@H]1[C@@H](OC(N)=O)[C@@H](O)[C@H](Oc2ccc3c(O)c(NC(=O)c4ccc(O)c(CC=C(C)C)c4)c(=O)oc3c2C)OC1(C)C [novobiocin, reference compound] | 2 (≈ 3.26 µM) | 4 (≈ 6.53 µM) | 8 (≈ 13.1 µM) | 4 (≈ 6.53 µM) | 64 (≈ 104 µM) | 0.5 (≈ 0.816 µM) |  |  |  |  |  |  |  |  |  |  | 

Source: paper PMC7556816, “Structural and mechanistic analysis of ATPase inhibitors targeting mycobacterial DNA gyrase” (Journal of Antimicrobial Chemotherapy, 2020)
